Laboratory results published in patent US7847123B2, “Antimicrobial compositions” (Evonik Goldschmidt GmbH, priority 2006, dated 2010).

Legend:
[1] = test system: S. epidermidis; assay: Antimicrobial effect: germ count over time in 0.3% by weight aqueous solution of test substance; type: cell-based, Staphylococcus epidermidis; conditions: 0.3% by weight in water, 37° C.; for germ count CFU/ml, 0 hours: directly after addition (0 h)
Method: (§1) 20 ml of a 0.3% by weight solution of the test substance listed below in the table in water was inoculated with 200 μl of a fresh 48 hour culture of C. xerosis or S. epidermidis and incubated for three days at 37° C. Directly after the addition, as well as after 1, 3, 24 and 48 hours, samples, each of 1 ml, were taken and the germ count was determined.

[2] = test system: C. xerosis; assay: as above; type: cell-based, Corynebacterium xerosis; conditions: 0.3% by weight in water, 37° C.; for germ count CFU/ml, 0 hours: directly after addition (0 h)
Method: as §1

[3] = test system: C. xerosis; assay: pH dependency of the antimicrobial effect: germ count in buffered solutions; type: cell-based, Corynebacterium xerosis
Method: as §1
(§2) The antimicrobial effect of octyllactamide in buffered solutions was tested correspondingly to example 8 at various pH values.

[4] = test system: S. epidermidis; assay: as above; type: cell-based, Staphylococcus epidermidis
Method: as §1, §2

CCCCCCNC(=O)C(C)O (stereo not shown) [Hexyllactamide, N-Hexyllactamide]
germ count CFU/ml, 1 hour [1]: 1.7E+6 CFU/ml
germ count CFU/ml, 3 hours [1]: 7.1E+5 CFU/ml
germ count CFU/ml, 24 hours [1]: <2.0E+2 CFU/ml
germ count CFU/ml, 48 hours [1]: <2.0E+2 CFU/ml
germ count CFU/ml, 0 hours [1]: 8.6E+6 CFU/ml
germ count CFU/ml, 1 hour [2]: 5.5E+5 CFU/ml
germ count CFU/ml, 3 hours [2]: 2.6E+3 CFU/ml
germ count CFU/ml, 24 hours [2]: <2.0E+2 CFU/ml
germ count CFU/ml, 48 hours [2]: <2.0E+2 CFU/ml
germ count CFU/ml, 0 hours [2]: 2.5E+6 CFU/ml

CCCCCCCCNC(=O)C(C)O (stereo not shown) [Octyllactamide, N-octyllactamide]
germ count CFU/ml, 0 hours ([3]; buffered solution pH 4.5, 0 h): 1.0E+6 CFU/ml
germ count CFU/ml, 1 hour ([3]; buffered solution pH 4.5, 1 h): 5.5E+4 CFU/ml
germ count CFU/ml, 3 hours ([3]; buffered solution pH 4.5, 3 h): <2.0E+2 CFU/ml
germ count CFU/ml, 24 hours ([3]; buffered solution pH 4.5, 24 h): <2.0E+2 CFU/ml
germ count CFU/ml, 48 hours ([3]; buffered solution pH 4.5, 48 h): <2.0E+2 CFU/ml
germ count CFU/ml, 0 hours ([3]; buffered solution pH 5.5, 0 h): 1.0E+6 CFU/ml
germ count CFU/ml, 1 hour ([3]; buffered solution pH 5.5, 1 h): 1.8E+5 CFU/ml
germ count CFU/ml, 3 hours ([3]; buffered solution pH 5.5, 3 h): 3.5E+4 CFU/ml
germ count CFU/ml, 24 hours ([3]; buffered solution pH 5.5, 24 h): <2.0E+2 CFU/ml
germ count CFU/ml, 48 hours ([3]; buffered solution pH 5.5, 48 h): <2.0E+2 CFU/ml
germ count CFU/ml, 0 hours ([3]; buffered solution pH 6.9, 0 h): 7.3E+5 CFU/ml
germ count CFU/ml, 1 hour ([3]; buffered solution pH 6.9, 1 h): 3.3E+3 CFU/ml
germ count CFU/ml, 3 hours ([3]; buffered solution pH 6.9, 3 h): <2.0E+2 CFU/ml
germ count CFU/ml, 24 hours ([3]; buffered solution pH 6.9, 24 h): <2.0E+2 CFU/ml
germ count CFU/ml, 48 hours ([3]; buffered solution pH 6.9, 48 h): <2.0E+2 CFU/ml
germ count CFU/ml, 0 hours ([4]; buffered solution pH 4.5, 0 h): 3.7E+6 CFU/ml
germ count CFU/ml, 1 hour ([4]; buffered solution pH 4.5, 1 h): 2.1E+6 CFU/ml
germ count CFU/ml, 3 hours ([4]; buffered solution pH 4.5, 3 h): 7.9E+4 CFU/ml
germ count CFU/ml, 24 hours ([4]; buffered solution pH 4.5, 24 h): <2.0E+2 CFU/ml
germ count CFU/ml, 48 hours ([4]; buffered solution pH 4.5, 48 h): <2.0E+2 CFU/ml
germ count CFU/ml, 0 hours ([4]; buffered solution pH 5.5, 0 h): 3.7E+6 CFU/ml
germ count CFU/ml, 1 hour ([4]; buffered solution pH 5.5, 1 h): 1.7E+6 CFU/ml
germ count CFU/ml, 3 hours ([4]; buffered solution pH 5.5, 3 h): 4.7E+3 CFU/ml
germ count CFU/ml, 24 hours ([4]; buffered solution pH 5.5, 24 h): <2.0E+2 CFU/ml
germ count CFU/ml, 48 hours ([4]; buffered solution pH 5.5, 48 h): <2.0E+2 CFU/ml
germ count CFU/ml, 0 hours ([4]; buffered solution pH 6.9, 0 h): 3.1E+6 CFU/ml
germ count CFU/ml, 1 hour ([4]; buffered solution pH 6.9, 1 h): 1.5E+6 CFU/ml
germ count CFU/ml, 3 hours ([4]; buffered solution pH 6.9, 3 h): 5.7E+4 CFU/ml
germ count CFU/ml, 24 hours ([4]; buffered solution pH 6.9, 24 h): <2.0E+2 CFU/ml
germ count CFU/ml, 48 hours ([4]; buffered solution pH 6.9, 48 h): <2.0E+2 CFU/ml
germ count CFU/ml, 1 hour [1]: 3.7E+6 CFU/ml
germ count CFU/ml, 3 hours [1]: 3.0E+6 CFU/ml
germ count CFU/ml, 24 hours [1]: 2.3E+6 CFU/ml
germ count CFU/ml, 48 hours [1]: 8.5E+5 CFU/ml
germ count CFU/ml, 0 hours [1]: 1.9E+7 CFU/ml
germ count CFU/ml, 1 hour [2]: 1.5E+4 CFU/ml
germ count CFU/ml, 3 hours [2]: <2.0E+2 CFU/ml
germ count CFU/ml, 24 hours [2]: <2.0E+2 CFU/ml
germ count CFU/ml, 48 hours [2]: <2.0E+2 CFU/ml
germ count CFU/ml, 0 hours [2]: 9.1E+5 CFU/ml

PEG-3-octyllactamide [Octyl-PEG-3-lactamide]
germ count CFU/ml, 1 hour [1]: 4.1E+6 CFU/ml
germ count CFU/ml, 3 hours [1]: 3.1E+6 CFU/ml
germ count CFU/ml, 24 hours [1]: <2.0E+2 CFU/ml
germ count CFU/ml, 48 hours [1]: <2.0E+2 CFU/ml
germ count CFU/ml, 0 hours [1]: 1.9E+7 CFU/ml
germ count CFU/ml, 1 hour [2]: 6.3E+4 CFU/ml
germ count CFU/ml, 3 hours [2]: 3.7E+3 CFU/ml
germ count CFU/ml, 24 hours [2]: <2.0E+2 CFU/ml
germ count CFU/ml, 48 hours [2]: <2.0E+2 CFU/ml
germ count CFU/ml, 0 hours [2]: 9.1E+5 CFU/ml

PEG-10-octyllactamide [Octyl-PEG-10-lactamide]
germ count CFU/ml, 1 hour [1]: 2.3E+6 CFU/ml
germ count CFU/ml, 3 hours [1]: 9.3E+6 CFU/ml
germ count CFU/ml, 24 hours [1]: 8.1E+4 CFU/ml
germ count CFU/ml, 48 hours [1]: <2.0E+2 CFU/ml
germ count CFU/ml, 0 hours [1]: 1.9E+7 CFU/ml
germ count CFU/ml, 1 hour [2]: 4.5E+5 CFU/ml
germ count CFU/ml, 3 hours [2]: 1.8E+5 CFU/ml
germ count CFU/ml, 24 hours [2]: 1.6E+3 CFU/ml
germ count CFU/ml, 48 hours [2]: <2.0E+2 CFU/ml
germ count CFU/ml, 0 hours [2]: 9.1E+5 CFU/ml
